Key:
[1] = target: Nitric oxide synthase 1 (Rattus norvegicus, UniProt P29476); assay: Compound was tested in vitro for inhibitory activity against nNOS (constitutive isoform found in neurons)
[2] = target: T1, Nitric oxide synthase, inducible (Mus musculus, UniProt P29477); assay: Compound was tested in vitro for inhibitory activity against inducible nitric oxide synthase
T1 sequence (P29477 whole entry): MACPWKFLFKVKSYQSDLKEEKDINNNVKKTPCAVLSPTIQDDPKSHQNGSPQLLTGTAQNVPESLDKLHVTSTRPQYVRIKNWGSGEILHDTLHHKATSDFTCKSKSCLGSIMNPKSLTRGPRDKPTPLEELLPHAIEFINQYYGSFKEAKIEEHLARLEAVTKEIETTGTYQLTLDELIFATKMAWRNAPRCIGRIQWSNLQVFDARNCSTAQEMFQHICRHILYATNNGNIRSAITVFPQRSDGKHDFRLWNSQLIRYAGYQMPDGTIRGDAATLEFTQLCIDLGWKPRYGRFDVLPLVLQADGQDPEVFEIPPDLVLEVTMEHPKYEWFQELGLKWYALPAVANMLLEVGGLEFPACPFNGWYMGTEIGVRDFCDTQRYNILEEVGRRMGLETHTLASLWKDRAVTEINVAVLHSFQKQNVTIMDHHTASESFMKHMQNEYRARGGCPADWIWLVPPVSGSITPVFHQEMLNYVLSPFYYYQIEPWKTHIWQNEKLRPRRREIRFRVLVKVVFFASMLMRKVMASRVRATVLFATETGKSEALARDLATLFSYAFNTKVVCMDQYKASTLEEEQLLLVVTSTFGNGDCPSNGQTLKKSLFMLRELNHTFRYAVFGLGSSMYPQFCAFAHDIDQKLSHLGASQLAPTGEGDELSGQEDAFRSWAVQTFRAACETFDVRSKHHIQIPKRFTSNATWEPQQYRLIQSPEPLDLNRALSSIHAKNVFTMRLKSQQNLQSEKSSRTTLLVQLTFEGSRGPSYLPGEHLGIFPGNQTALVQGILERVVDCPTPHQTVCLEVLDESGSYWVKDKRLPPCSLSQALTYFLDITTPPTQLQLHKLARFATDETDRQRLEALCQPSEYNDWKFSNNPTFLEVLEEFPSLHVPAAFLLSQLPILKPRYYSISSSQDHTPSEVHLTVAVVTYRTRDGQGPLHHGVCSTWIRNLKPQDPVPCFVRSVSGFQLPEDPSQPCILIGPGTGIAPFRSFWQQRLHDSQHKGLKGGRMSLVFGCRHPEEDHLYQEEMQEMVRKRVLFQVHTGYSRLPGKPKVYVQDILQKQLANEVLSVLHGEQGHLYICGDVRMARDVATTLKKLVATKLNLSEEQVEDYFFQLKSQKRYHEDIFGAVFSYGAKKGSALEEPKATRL

Nitric oxide synthase 1, sequence (P29476 whole entry, canonical isoform): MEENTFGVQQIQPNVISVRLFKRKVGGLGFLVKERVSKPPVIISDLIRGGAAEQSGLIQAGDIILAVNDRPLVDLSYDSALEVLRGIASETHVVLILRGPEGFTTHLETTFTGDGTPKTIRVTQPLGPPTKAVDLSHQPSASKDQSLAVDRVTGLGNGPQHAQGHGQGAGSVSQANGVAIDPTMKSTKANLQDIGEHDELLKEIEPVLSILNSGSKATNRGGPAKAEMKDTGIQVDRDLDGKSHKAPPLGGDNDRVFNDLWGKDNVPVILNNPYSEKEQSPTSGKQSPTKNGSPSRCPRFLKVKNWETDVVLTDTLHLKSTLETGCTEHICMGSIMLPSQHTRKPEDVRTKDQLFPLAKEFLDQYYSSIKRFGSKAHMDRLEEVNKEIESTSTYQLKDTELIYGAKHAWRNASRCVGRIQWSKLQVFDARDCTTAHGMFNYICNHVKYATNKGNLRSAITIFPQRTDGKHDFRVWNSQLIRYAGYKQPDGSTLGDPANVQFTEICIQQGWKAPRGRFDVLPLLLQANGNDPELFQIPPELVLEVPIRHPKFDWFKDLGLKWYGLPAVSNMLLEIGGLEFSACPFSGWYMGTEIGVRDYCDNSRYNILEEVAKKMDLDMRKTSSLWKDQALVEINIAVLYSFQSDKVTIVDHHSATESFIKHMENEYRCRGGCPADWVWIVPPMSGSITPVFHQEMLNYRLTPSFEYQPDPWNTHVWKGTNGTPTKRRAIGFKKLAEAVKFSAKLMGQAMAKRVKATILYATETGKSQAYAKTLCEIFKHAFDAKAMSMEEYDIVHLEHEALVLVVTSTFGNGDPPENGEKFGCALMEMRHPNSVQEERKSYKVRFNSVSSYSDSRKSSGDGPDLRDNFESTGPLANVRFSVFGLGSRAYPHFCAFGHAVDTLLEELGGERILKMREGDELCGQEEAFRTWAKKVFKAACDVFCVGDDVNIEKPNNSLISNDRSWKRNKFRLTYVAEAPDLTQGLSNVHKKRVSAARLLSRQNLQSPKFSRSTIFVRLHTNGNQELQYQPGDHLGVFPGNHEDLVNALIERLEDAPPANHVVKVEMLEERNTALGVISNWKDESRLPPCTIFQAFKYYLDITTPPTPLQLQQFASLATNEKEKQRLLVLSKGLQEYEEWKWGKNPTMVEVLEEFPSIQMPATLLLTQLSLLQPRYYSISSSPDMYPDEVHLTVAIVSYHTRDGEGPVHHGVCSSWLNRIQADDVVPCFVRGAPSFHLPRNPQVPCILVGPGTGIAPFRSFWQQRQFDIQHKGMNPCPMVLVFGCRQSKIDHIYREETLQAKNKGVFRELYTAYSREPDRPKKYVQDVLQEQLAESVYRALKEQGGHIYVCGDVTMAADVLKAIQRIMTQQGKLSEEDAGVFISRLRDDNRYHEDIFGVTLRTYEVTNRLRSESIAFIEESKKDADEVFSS

Row | SMILES | IC50 [1] [µM] | IC50 [2] [µM]
1 | N/C(=N/CCCC(N)P(=O)(O)O)N[N+](=O)[O-] (stereo not drawn) | > 100 | > 100
2 | CNC(=N)NCCCC(N)[PH](=O)O (stereo not drawn) | 100 | > 100
3 | N=C(N)NCCCC(N)P(=O)(O)O (stereo not drawn) | > 100 | > 100
4 | CNC(=N)NCCCC(N)P(=O)(O)O (stereo not drawn) | > 100 | > 100
5 | NC(N)=NCCCC(N)[PH](=O)O (stereo not drawn) | > 100 | > 100
6 | N/C(=N/CCCC(N)[PH](=O)O)N[N+](=O)[O-] (stereo not drawn) | 45 | > 100
7 | N=C(NCCC[C@H](N)C(=O)O)N[N+](=O)[O-] [NITROARGININE] | – | 10
